Test results as given in patent US20260334439A1, “BCAT2 INHIBITORS” (Agios Pharmaceuticals, Inc., priority 2023, published 2026).

Molecular target: T1, BCAT2 (Homo sapiens, UniProt O15382)
T1 sequence (O15382 28-392): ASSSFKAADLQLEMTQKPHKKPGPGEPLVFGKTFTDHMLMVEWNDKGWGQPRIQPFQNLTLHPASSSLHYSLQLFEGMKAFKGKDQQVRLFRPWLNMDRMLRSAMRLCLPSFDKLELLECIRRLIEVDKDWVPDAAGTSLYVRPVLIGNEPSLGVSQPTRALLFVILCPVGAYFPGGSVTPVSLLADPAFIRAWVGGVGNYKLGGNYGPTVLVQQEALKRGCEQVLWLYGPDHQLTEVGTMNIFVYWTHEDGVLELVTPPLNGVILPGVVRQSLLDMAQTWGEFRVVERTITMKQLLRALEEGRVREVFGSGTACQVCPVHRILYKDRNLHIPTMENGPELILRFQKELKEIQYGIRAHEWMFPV
Test: BCAT2 in vitro enzyme inhibition assay (hBCAT2, glutamate dehydrogenase/diaphorase/resazurin coupled fluorescence read)
Assay type: biochemical
Conditions: hBCAT2, 1 h preincubation at 25° C., one hour reaction; average where tested multiple times
Procedure: • 2×Buffer: 200 mM Tris pH 8.0, 300 mM NaCl, 0.1% BSA • 1.67×hBCAT2 Enzyme Mix: 0.33 μg/mL hBCAT2, 1× Buffer • 2.5×Substrate Mix: 460 µM L-leucine, 420 µM α-KetoGlutarate, 10 U/mL glutamate dehydrogenase, 10 mM NAD, […] diaphorase, […] Resazurin
BCAT2 enzyme stock solution was diluted to prepare a 1.67×hBCAT2 Enzyme Mix. 1 μL of test compound was first added to the reaction wells followed by 30 μL of 1.67×hBCAT2 Enzyme Mix and incubated at room temperature (25° C.) for one hour. Meanwhile the Substrate Mix was prepared. The reaction was initiated by the addition of 20 μL of the 2.5×Substrate Mix, bringing the final reaction mix of all components to 1×. Reactions were quenched after one hour by the addition of 25 μL of 6% SDS and reaction progress was measured via fluorescence read (Ex 540/Em 590).
Test compounds were prepared at 50×final concentration in DMSO, 1 to 3 dilutions were made for 10 points. The compounds were added to the assay as a 1 to 50 dilution (1 μL in 50 μL) to yield a top assay final concentration of 100 μM, decreasing 3-fold for 10 points. Each compound dilution series test also included an assay max (1 μL DMSO Added in lieu of compound, Full Reaction Components Included) and Min (1 μL DMSO Added in lieu of compound, 30 μl of 1.67×hBCAT2 Enzyme Mix replated by 30 μL of 1×Buffer). All tests were performed in technical duplicate.
Where a compound was tested multiple times, the average value of the tests is reported.

SMILES	IC50
CN1C[C@@H](NC(=O)c2cc(F)ccc2F)C[C@@H](n2c(-c3ccccc3F)nc3cnc(-c4nc[nH]n4)cc32)C1 [Example 152, 2,5-difluoro-N-((3S,5R)-5-(2-(2-fluorophenyl)-6-(1H-1,2,4-triazol-3-yl)-1H-imidazo[4,5-c]pyridin-1-yl)-1-methylpiperidin-3-yl)benzamide]	100 to 500 nM
CN1C[C@H](NC(=O)c2cc(F)ccn2)C[C@H](n2c(-c3ccccc3OCCO)nc3cnc(-c4ncccn4)cc32)C1 [Example 163, 4-fluoro-N-((3R,5S)-5-(2-(2-(2-hydroxyethoxy)phenyl)-6-(pyrimidin-2-yl)-1H-imidazo[4,5-c]pyridin-1-yl)-1-methylpiperidin-3-yl)picolinamide]	< 100 nM
O=C(N[C@H]1CCC[C@@H](n2c(-c3ncccc3OC(F)F)nc3cnc(-c4nc[nH]n4)cc32)C1)c1cc(Cl)ccc1OC(F)F [compound 66]	< 100 nM
CC(C)COc1ccc(Cl)cc1C(=O)N[C@H]1CCC[C@@H](n2c(-c3ncccc3F)nc3cnc(-c4nc[nH]n4)cc32)C1 [Example 48, 5-chloro-N-((1S,3R)-3-(2-(3-fluoropyridin-2-yl)-6-(1H-1,2,4-triazol-3-yl)-1H-imidazo[4,5-c]pyridin-1-yl)cyclohexyl)-2-isobutoxybenzamide]	< 100 nM
CN1C[C@@H](NC(=O)c2cc(F)ccn2)C[C@@H](n2c(-c3ccccc3OCCO)nc3ccc(-c4ncccn4)cc32)C1 [Example 237, 4-fluoro-N-((3S,5R)-5-(2-(2-(2-hydroxyethoxy)phenyl)-6-(pyr-imidin-2-yl)-1H-benzo[d]imid-azol-1-yl)-1-methylpiperidin-3-yl)picolinamide]	> 1000 nM
CC(C)Oc1ccc(Cl)cc1C(=O)N[C@H]1CCC[C@@H](n2c(-c3ncccc3OC(F)F)nc3cnc(-c4nc[nH]n4)cc32)C1 [compound 65]	< 100 nM
CN1C[C@@H](N2Cc3ccc(F)cc3C2=O)C[C@@H](n2c(-c3ccccc3OCCO)nc3cnc(-c4nc[nH]n4)cc32)C1 [Example 198, 6-fluoro-2-((3S,5R)-5-(2-(2-(2-hydroxyethoxy)phenyl)-6-(1H-1,2,4-triazol-3-yl)-1H-imidazo[4,5-c]pyridin-1-yl)-1-methylpiperidin-3-yl)isoindolin-1-one]	100 to 500 nM
CN1C[C@H](N2Cc3ccc(F)cc3C2=O)C[C@H](n2c(-c3ccccc3OCCO)nc3cnc(-c4nc[nH]n4)cc32)C1 [Example 197, 6-fluoro-2-((3R,5S)-5-(2-(2-(2-hydroxyethoxy)phenyl)-6-(1H-1,2,4-triazol-3-yl)-1H-imidazo[4,5-c]pyridin-1-yl)-1-methylpiperidin-3-yl)isoindolin-1-one]	< 100 nM
CO[C@@H]1C[C@@H](NC(=O)c2cc(F)ccn2)C[C@@H](n2c(-c3ccccc3F)nc3ccc(-c4nc[nH]n4)cc32)C1 [Example 220, 4-fluoro-N-((1R,3S,5S)-3-(2-(2-fluorophenyl)-6-(1H-1,2,4-triazol-3-yl)-1H-benzo[d]imid-azol-1-yl)-5-methoxycyclohex-yl)picolinamide]	> 1000 nM
CN1C[C@H](NC(=O)c2cc(F)ccn2)C[C@H](n2c(-c3ccccc3OCCO)nc3ccc(-c4ncccn4)cc32)C1 [Example 236, 4-fluoro-N-((3R,5S)-5-(2-(2-(2-hydroxyethoxy)phenyl)-6-(pyr-imidin-2-yl)-1H-benzo[d]imid-azol-1-yl)-1-methylpiperidin-3-yl)picolinamide]	100 to 500 nM
CC(C)Cc1nc2cnc(-c3nc[nH]n3)cc2n1[C@@H]1CCC[C@H](NC(=O)c2cc(Cl)ccc2OC2CC2)C1 [Example 79, 5-chloro-2-cyclopropoxy-N-((1S,3R)-3-(2-isobutyl-6-(1H-1,2,4-triazol-3-yl)-1H-imidazo[4,5-c]pyridin-1-yl)cyclohexyl)benzamide]	< 100 nM
N#Cc1ccccc1-c1nc2cnc(-c3nc[nH]n3)cc2n1[C@@H]1CCC[C@H](N2COc3ccc(F)cc3C2=O)C1 [Example 210, 2-(1-((1R,3S)-3-(6-fluoro-4-oxo-2H-benzo[e][1,3]oxazin-3(4H)-yl)cyclohexyl)-6-(1H-1,2,4-triazol-3-yl)-1H-imidazo[4,5-c]pyridin-2-yl)benzonitrile]	< 100 nM
COc1ccc(C(F)(F)F)cc1C(=O)N[C@H]1CCC[C@@H](n2c(-c3ccccc3F)nc3cnc(-c4nc[nH]n4)cc32)C1 [Example 9, N-((1S,3R)-3-(2-(2-fluorophenyl)-6-(1H-1,2,4-triazol-3-yl)-1H-imidazo[4,5-c]pyridin-1-yl)cyclohexyl)-2-methoxy-5-(trifluoromethyl)benzamide]	< 100 nM
O=C(N[C@H]1CCC[C@@H](n2c(-c3ncccc3OC(F)F)nc3cnc(-c4nc[nH]n4)cc32)C1)c1cc(F)ccn1 [compound 63]	< 100 nM
O=C(N[C@H]1CCC[C@@H](n2c(-c3ccccc3F)nc3cnc(N4CCCC4)cc32)C1)c1cc(Cl)ccn1 [Example 28, 4-chloro-N-((1S,3R)-3-(2-(2-fluorophenyl)-6-(pyrrolidin-1-yl)-1H-imidazo[4,5-c]pyridin-1-yl)cyclohexyl)picolinamide]	100 to 500 nM
CN1CC(NC(=O)c2cc(F)ccc2F)CC(n2c(-c3ncccc3F)nc3cnc(-c4nc[nH]n4)cc32)C1 (stereo not shown) [Example 146, 2,5-difluoro-N-(5-(2-(3-fluoropyridin-2-yl)-6-(1H-1,2,4-triazol-3-yl)-1H-imidazo[4,5-c]pyridin-1-yl)-1-methylpiperidin-3-yl)benzamide]	100 to 500 nM

Further lines, results first:

IC50	SMILES
500 to 1000 nM	COc1ccc(Cl)cc1C(=O)N[C@H]1C[C@@H](n2c(-c3ccccc3F)nc3cnc(-c4nc[nH]n4)cc32)CN(C)C1 [Example 135, 5-chloro-N-((3S,5R)-5-(2-(2-fluorophenyl)-6-(1H-1,2,4-triazol-3-yl)-1H-imidazo[4,5-c]pyridin-1-yl)-1-methylpiperidin-3-yl)-2-methoxybenzamide]
< 100 nM	O=C(N[C@H]1CCC[C@@H](n2c(-c3ccccc3F)nc3cnc(-c4nc[nH]n4)cc32)C1)c1cc(Cl)ccc1OC(F)F [compound 50]
< 100 nM	O=C(N[C@H]1CCC[C@@H](n2c(-c3ccccc3F)nc3cnc(-c4nc[nH]n4)cc32)[C@@H]1O)c1cc(Cl)ccn1 [Example 103, 4-chloro-N-((1S,2R,3R)-3-(2-(2-fluorophenyl)-6-(1H-1,2,4-triazol-3-yl)-1H-imidazo[4,5-c]pyridin-1-yl)-2-hydroxycyclohexyl)picolinamide]
100 to 500 nM	CN1C[C@@H](NC(=O)c2cc(Cl)ccc2F)C[C@@H](n2c(-c3ccccc3F)nc3cnc(-c4nc[nH]n4)cc32)C1 [Example 144, 5-chloro-2-fluoro-N-((3S,5R)-5-(2-(2-fluorophenyl)-6-(1H-1,2,4-triazol-3-yl)-1H-imidazo[4,5-c]pyridin-1-yl)-1-methylpiperidin-3-yl)benzamide]
100 to 500 nM	CN1C[C@@H](NC(=O)c2cc(Cl)ccn2)C[C@@H](n2c(-c3ccccc3OC(F)F)nc3cnc(-c4nc[nH]n4)cc32)C1 [compound 142]
< 100 nM	COc1ccc(F)cc1C(=O)N[C@H]1CCC[C@@H](n2c(-c3ccccc3F)nc3cnc(-c4nc[nH]n4)cc32)C1 [Example 8, 5-fluoro-N-((1S,3R)-3-(2-(2-fluorophenyl)-6-(1H-1,2,4-triazol-3-yl)-1H-imidazo[4,5-c]pyridin-1-yl)cyclohexyl)-2-methoxybenzamide]
100 to 500 nM	CN1C[C@@H](NC(=O)c2cc(Cl)ccc2OCCO)C[C@@H](n2c(-c3ccccc3F)nc3cnc(-c4nc[nH]n4)cc32)C1 [Example 151, 5-chloro-N-((3S,5R)-5-(2-(2-fluorophenyl)-6-(1H-1,2,4-triazol-3-yl)-1H-imidazo[4,5-c]pyridin-1-yl)-1-methylpiperidin-3-yl)-2-(2-hydroxyethoxy)benzamide]
> 1000 nM	CC(Oc1ccccc1-c1nc2cnc(-c3nc[nH]n3)cc2n1[C@@H]1CCC[C@H](NC(=O)c2cc(Cl)ccn2)C1)C(F)(F)F (stereo partly drawn) [Example 91, N-((1S,3R)-3-(6-(1H-1,2,4-triazol-3-yl)-2-(2-((1,1,1-trifluoropropan-2-yl)oxy)phenyl)-1H-imidazo[4,5-c]pyridin-1-yl)cyclohexyl)-4-chloropicolinamide]
> 1000 nM	CN1C[C@@H](NC(=O)c2cc(Cl)ccn2)C[C@@H](n2c(-c3ncccc3F)nc3cnc(-c4nc[nH]n4)cc32)C1 [Example 131, 4-chloro-N-((3S,5R)-5-(2-(3-fluoropyridin-2-yl)-6-(1H-1,2,4-triazol-3-yl)-1H-imidazo[4,5-c]pyridin-1-yl)-1-methylpiperidin-3-yl)picolinamide]
